In patent publication EP0136745A2, “Benzoyl urea derivatives having anti-tumor activity” (DUPHAR INTERNATIONAL RESEARCH B.V, priority 1983, dated 1985):

Tested on: B16 melanoma cells
Assay: Sensitivity of B16 melanoma cells, in vitro cell growth inhibition (Coulter Counter cell count)
Assay type: cell-based
Settings: Mus musculus, dosage of 500 /ug/ml, aqueous suspension, incubation 20 hours at 37°C, cells counted 48 hours after beginning of incubation, inhibition of cell growth with respect to control
Protocol: The anti-tumor activity was tested in an in vitro test. In this test the sensitivity of B16 melanoma cells to the new compounds according to the invention was determined.
B16 melanoma cells grow as a "monolayer". The doubling time of said cells in a cell culture is 12-16 hours.
On day O a quantity of 5 x 10^4 B 16 melanoma cells is provided in each cell culture dish.
On day 1 the compounds to be tested are vortexed in the presence of glass-beads. The compound to be tested is then addei to the dishes comprising melanoma cells in the desired quantity. Incubation takes place in a CO2--incubator at 37°C for 20 hours. The incubation is terminated by removing the culture medium with therein the compound to be tested, after which the cells are washed twice and fresh medium is added.
Forty-eight hours after the beginninq of the incubation the quantity of cells in each dish is measured by means of a microcell Coulter Counter. The results thus obtained are expressed by indicating the activity cf the compounds as 1+, 2+, 3+, 4+ or 5+, which has the following meaning: • 1+ : cel growth is inhibited 1- 20% with respect to control. • 2+ : cel growth is inhibited 20- 40% with respect to control. • 3+ : cel growth is inhibited 40- 60% with respect to control. • 4+ : cel growth is inhibited 60- 80% with respect to control. • 5+ : cel growth is inhibited 80-100% with respect to control.
Various compounds according to the invention were tested in the above-described manner in a dosage of 500 /ug/ml in the form of an aqueous suspension.

| Compound | inhibition at 500 µg/mL [%] |
| --- | --- |
| O=C(NC(=O)c1c(Cl)ccc(O)c1Cl)Nc1ccc(Cl)cc1 [Compound 1] | 80 to 100 |
| CC(=O)Oc1ccc(Cl)c(C(=O)NC(=O)Nc2ccc(Cl)cc2)c1Cl [Compound 2] | 60 to 80 |
| O=C(NC(=O)c1c(Cl)ccc(OCc2ccccc2)c1Cl)Nc1ccc(Cl)cc1 [Compound 3] | 40 to 60 |
| O=C(NC(=O)c1c(Cl)ccc(O)c1Cl)Nc1ccc(C(F)(F)F)cc1 [Compound 4] | 80 to 100 |
| CC(=O)Oc1ccc(Cl)c(C(=O)NC(=O)Nc2ccc(C(F)(F)F)cc2)c1Cl [Compound 5] | 80 to 100 |
| O=C(NC(=O)c1c(O)cccc1Cl)Nc1ccc(Cl)cc1 [Compound 6] | 60 to 80 |
| CC(=O)Oc1cccc(Cl)c1C(=O)NC(=O)Nc1ccc(Cl)cc1 [Compound 7] | 80 to 100 |
| CCC(=O)Oc1cccc(Cl)c1C(=O)NC(=O)Nc1ccc(Cl)cc1 [Compound 8] | 60 to 80 |
| O=C(NC(=O)c1cc([N+](=O)[O-])ccc1O)Nc1ccc(Cl)cc1 [Compound 9] | 60 to 80 |
| O=C(NC(=O)c1ccccc1O)Nc1ccc([N+](=O)[O-])cc1Cl [Compound 10] | 60 to 80 |
| O=C(NC(=O)c1c(O)cccc1O)Nc1ccc(Cl)cc1 [Compound 11] | 80 to 100 |
| O=C(NC(=O)c1cc(I)cc(I)c1O)Nc1ccc(Cl)cc1 [Compound 12] | 80 to 100 |
| Cc1cc(Cl)ccc1NC(=O)NC(=O)c1c(O)cccc1O [Compound 13] | 60 to 80 |
| CC(=O)Oc1cccc(Cl)c1C(=O)NC(=O)Nc1ccc(OC(F)(F)C(F)F)cc1 [Compound 14] | 80 to 100 |
| CC(=O)Oc1cccc(Cl)c1C(=O)NC(=O)Nc1ccc(OC2CC(C)CCC2C(C)C)cc1 (stereo not drawn) [Compound 15] | 60 to 80 |
| CC(=O)Oc1cccc(Cl)c1C(=O)NC(=O)Nc1ccc(C(=O)N2CCCCC2)cc1 [Compound 16] | 80 to 100 |
| O=C(NC(=O)c1ccccc1OC(=O)c1ccccc1)Nc1ccc(Cl)cc1 [Compound 17] | 60 to 80 |
| O=C(NC(=O)c1cc(Cl)c(O)c(Cl)c1)Nc1ccc(Cl)cc1 [Compound 18] | 60 to 80 |
| CC(=O)Oc1c(Cl)cc(C(=O)NC(=O)Nc2ccc(Cl)cc2)cc1Cl [Compound 19] | 60 to 80 |

| Compound | inhibition at 500 µg/mL [%] |
| --- | --- |
| O=C(NC(=O)c1cc(Cl)ccc1O)Nc1ccc([N+](=O)[O-])cc1Cl [Compound 20] | 40 to 60 |
| O=C(NC(=O)c1c(Cl)cc(O)cc1Cl)Nc1ccc(Cl)c(Cl)c1 [Compound 21] | 60 to 80 |
| Cc1cc(Cl)ccc1NC(=O)NC(=O)c1c(OCc2ccccc2)cccc1OCc1ccccc1 [Compound 22] | 40 to 60 |
| CC(=O)Oc1cccc(Cl)c1C(=O)NC(=O)Nc1ccc(C(=O)c2ccccc2)cc1 [Compound 23] | 80 to 100 |
| CC(=O)Oc1cc(Cl)ccc1NC(=O)NC(=O)c1c(F)cccc1F [Compound 24] | 80 to 100 |
| CC(=O)Oc1cc(C(F)(F)F)ccc1NC(=O)NC(=O)c1c(F)cccc1F [Compound 25] | 80 to 100 |
| O=C(NC(=O)c1c(F)cccc1F)Nc1ccc(O)c(C(F)(F)F)c1 [Compound 26] | 80 to 100 |
| O=C(NC(=O)c1ccccc1Cl)Nc1ccc(O)c(C(F)(F)F)c1 [Compound 27] | 40 to 60 |
| O=C(NC(=O)c1ccccc1Cl)Nc1ccc(O)cc1OC(F)(F)F [Compound 28] | 80 to 100 |
| CC(=O)Oc1cc(C(F)(F)F)ccc1NC(=O)NC(=O)c1ccccc1Cl [Compound 29] | 40 to 60 |
| CC(=O)Oc1cc(OC(F)(F)F)ccc1NC(=O)NC(=O)c1ccccc1Cl [Compound 30] | 40 to 60 |
| O=C(NC(=O)c1c(F)cccc1F)Nc1ccc(Oc2ccc(Cl)cc2)c(Cl)c1 [Compound 31] | 40 to 60 |
| CNC(=O)Oc1ccccc1NC(=O)NC(=O)c1c(Cl)cccc1Cl [Compound 32] | 60 to 80 |
| O=C(NC(=O)c1c(Cl)cccc1Cl)Nc1cccc(OC(=O)Nc2ccccc2)c1 [Compound 33] | 80 to 100 |
| O=C(NC(=O)c1ccccc1Cl)Nc1ccc(OC(=O)Cc2ccc(Cl)cc2)c(Cl)c1 [Compound 34] | 40 to 60 |
| CCOC(=O)COc1ccc(NC(=O)NC(=O)c2c(F)cccc2F)cc1C(F)(F)F [Compound 35] | 60 to 80 |
| Cc1ccccc1C(=O)NC(=O)Nc1ccc(O)cc1 [Compound 36] | 60 to 80 |
| CC(C)(C)c1cc(NC(=O)NC(=O)c2ccccc2Cl)cc(C(C)(C)C)c1O [Compound 37] | 80 to 100 |
| O=C(NC(=O)c1c(O)cccc1Cl)Nc1ccc(Cl)c(O)c1 [Compound 38] | 60 to 80 |

| Compound | inhibition at 500 µg/mL [%] |
| --- | --- |
| CC(=O)Oc1cc(NC(=O)NC(=O)c2c(Cl)cccc2OC(C)=O)ccc1Cl [Compound 39] | 80 to 100 |
| CC(=O)Oc1cccc(Cl)c1C(=O)NC(=O)Nc1ccc(O)cc1 [Compound 40] | 60 to 80 |
| CC(=O)Oc1cccc(Cl)c1C(=O)NC(=O)Nc1cc(C)ccc1O [Compound 41] | 80 to 100 |
| CC(=O)Oc1cccc(Cl)c1C(=O)NC(=O)Nc1ccc([N+](=O)[O-])cc1O [Compound 42] | 80 to 100 |
| CC(=O)Oc1ccc(C)cc1NC(=O)NC(=O)c1c(Cl)cccc1OC(C)=O [Compound 43] | 80 to 100 |
| CCCCOC(=O)c1ccc(NC(=O)NC(=O)c2c(Cl)cccc2OC(C)=O)cc1O [Compound 44] | 60 to 80 |
| CC(=O)Oc1cccc(Cl)c1C(=O)NC(=O)Nc1cc(Br)cc(Br)c1O [Compound 45, 1-(2-acetoxy-6-chlorobenzoyl)-3-(2-hydroxy-3,5-dibromophenyl)urea] | 80 to 100 |
| CC(=O)Oc1cccc(Cl)c1C(=O)NC(=O)Nc1ccc(O)c(C(C)=O)c1 [Compound 46] | 80 to 100 |
| CC(=O)Oc1ccc(NC(=O)NC(=O)c2cc(C(C)(C)C)c(O)c(C(C)(C)C)c2)cc1 [Compound 47] | 60 to 80 |
| CC(=O)Oc1ccc(C(=O)NC(=O)Nc2ccc(O)cc2)cc1Cl [Compound 48] | 60 to 80 |
| CC(=O)Oc1ccccc1C(=O)NC(=O)Nc1cc(Cl)c(O)c(Cl)c1 [Compound 49] | 80 to 100 |
| O=C(NC(=O)c1c(F)cccc1F)Nc1ccccc1S [Compound 50] | 80 to 100 |
| CC(=O)Oc1ccccc1NC(=S)NC(=O)c1ccccc1 [Compound 51] | 60 to 80 |
| CSc1cccc(Cl)c1C(=S)NC(=S)Nc1ccc(Cl)cc1 [Compound 52] | 80 to 100 |
| O=C(NC(=S)Nc1cccc(O)c1)c1ccc(Cl)cc1Cl [Compound 53] | 80 to 100 |
| O=C(NC(=O)c1ccccc1OCc1ccccc1)Nc1ccc(Cl)cc1 [Compound 54, 1-(2-benzyloxybenzoyl)-3-(4-chlorophenyl)urea] | 20 to 40 |
| O=C(NC(=O)c1c(F)cccc1F)Nc1cc(Cl)c(C(=O)c2ccc(Cl)cc2)c(Cl)c1 [Compound 55] | 40 to 60 |
| CC(=O)Oc1ccc(C(=O)NC(=O)Nc2ccc(O)c(C(F)(F)F)c2)cc1Cl [Compound 56] | 40 to 60 |
| O=C(NC(=O)c1c(F)cccc1F)Nc1ccc(OC(=O)Oc2ccc(Cl)cc2)cc1 [Compound 57] | 20 to 40 |
